Results reported in ChEMBL document CHEMBL1201862, “PubChem BioAssay data set” (2004).
Calls of active or inactive are those of the source.

Experiments:
[1] = biological target: T1, Carboxy-terminal domain RNA polymerase II polypeptide A small phosphatase 1 (Homo sapiens, UniProt Q9GZU7); assay: inhibitors of CTDSP1, concentration-response testing, biochemical assay, absorbance-based, actives from ultra-high-throughput screening (AID 540297); format: functional
T1 sequence (Q9GZU7 whole entry): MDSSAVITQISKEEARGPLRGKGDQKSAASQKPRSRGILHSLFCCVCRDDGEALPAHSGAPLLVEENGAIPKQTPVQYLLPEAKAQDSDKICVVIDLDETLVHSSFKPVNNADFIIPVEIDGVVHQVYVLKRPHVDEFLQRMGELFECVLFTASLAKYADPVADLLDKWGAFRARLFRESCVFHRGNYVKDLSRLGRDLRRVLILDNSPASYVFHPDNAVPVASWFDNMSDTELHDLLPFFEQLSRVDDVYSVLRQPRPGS

cells [2] = format: functional, cell-based
cells [3] = format: functional, cell-based; remark: listed apart in the source
[4] = biological target: T2, Rac GTPase-activating protein 1 (Homo sapiens, UniProt Q9H0H5); assay: MgcRacGAP GTPase-activating activity inhibitors, confirmation, biochemical, ADP Hunter fluorescence, primary and confirmatory (AID 624330); format: functional
T2 sequence (Q9H0H5 whole entry): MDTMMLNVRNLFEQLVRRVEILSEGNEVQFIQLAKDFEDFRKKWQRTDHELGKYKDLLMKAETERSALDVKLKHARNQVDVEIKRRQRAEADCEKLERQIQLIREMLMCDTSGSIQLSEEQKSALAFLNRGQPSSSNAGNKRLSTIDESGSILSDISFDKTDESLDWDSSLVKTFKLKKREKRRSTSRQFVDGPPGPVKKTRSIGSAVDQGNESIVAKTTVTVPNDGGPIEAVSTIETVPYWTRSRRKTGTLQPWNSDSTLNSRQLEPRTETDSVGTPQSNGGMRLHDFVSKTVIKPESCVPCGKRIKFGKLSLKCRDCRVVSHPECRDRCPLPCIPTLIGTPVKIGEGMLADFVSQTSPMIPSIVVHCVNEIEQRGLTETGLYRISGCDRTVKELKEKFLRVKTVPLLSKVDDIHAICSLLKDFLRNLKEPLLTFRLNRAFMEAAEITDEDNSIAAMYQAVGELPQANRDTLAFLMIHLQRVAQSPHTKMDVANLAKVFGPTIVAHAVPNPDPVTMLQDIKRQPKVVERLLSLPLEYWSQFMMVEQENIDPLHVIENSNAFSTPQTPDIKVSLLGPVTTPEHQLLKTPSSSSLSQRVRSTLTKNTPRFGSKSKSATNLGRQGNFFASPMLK

[5] = Luminescence Cell-Based Dose Confirmation HTS to Identify Activators of 5'UTR Stem-Loop Driven Alpha-Synuclein mRNA Translation in H4 Neuroglioblastoma Cells. [Related pubchem assays: 1829 (Project Summary), 1814 (Primary HTS)]; format: functional
[6] = Luminescence Cell-Based Dose Response HTS to Identify Activators of Luciferase Translation or Activity in H4 […] Cells. [Related pubchem assays: 1829 (Project Summary), 1814 (Primary HTS)]; format: functional
H4 = assay: Luminescence Cell-Based Dose Response HTS to Identify Activators of 5'UTR Stem-Loop Driven Prion Protein mRNA Translation in H4 Neuroglioblastoma Cells. [Related pubchem assays: 1829 (Project Summary), 1814 (Primary HTS)]; format: functional; details: Homo sapiens
[7] = biological target: T3, Polyadenylate-binding protein 1 (Homo sapiens, UniProt P11940); assay: PABP1 MLLE–PAM2 interaction inhibitors, dose response, miRNA deadenylation inhibitor project, biochemical, fluorescence polarization, Cy5-PAM2 peptide, secondary (AID 602260); format: functional; details: read-out: IC50_Mean
T3 sequence (P11940 whole entry): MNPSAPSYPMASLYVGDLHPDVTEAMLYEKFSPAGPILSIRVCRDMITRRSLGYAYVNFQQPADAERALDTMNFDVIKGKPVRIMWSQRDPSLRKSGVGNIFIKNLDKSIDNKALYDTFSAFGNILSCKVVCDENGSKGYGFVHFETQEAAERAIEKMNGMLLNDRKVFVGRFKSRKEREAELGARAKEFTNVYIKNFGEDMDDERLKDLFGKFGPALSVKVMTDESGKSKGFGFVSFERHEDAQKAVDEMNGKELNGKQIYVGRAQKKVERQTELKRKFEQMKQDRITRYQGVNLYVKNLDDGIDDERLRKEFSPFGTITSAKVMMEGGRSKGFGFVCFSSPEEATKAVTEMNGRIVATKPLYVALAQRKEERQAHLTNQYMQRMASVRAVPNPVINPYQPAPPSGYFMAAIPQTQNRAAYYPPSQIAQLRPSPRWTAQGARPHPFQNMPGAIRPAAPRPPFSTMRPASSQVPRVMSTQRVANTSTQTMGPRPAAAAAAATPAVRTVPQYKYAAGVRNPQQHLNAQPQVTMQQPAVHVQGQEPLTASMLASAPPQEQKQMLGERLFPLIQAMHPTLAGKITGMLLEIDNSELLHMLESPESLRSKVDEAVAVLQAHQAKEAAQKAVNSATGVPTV

[8] = biological target: T3, Polyadenylate-binding protein 1; assay: PABP1 MLLE–PAM2 binding inhibitor potency, dose response, biochemical, fluorescence polarization, FITC-PAM2 peptide (AID 602259); format: functional; details: read-out: IC50_Mean
[9] = biological target: Glucose-6-phosphate 1-dehydrogenase (Homo sapiens, UniProt P11413); assay: human G6PD enzyme inhibitors, dose response, selectivity assay for P. falciparum G6PD inhibitor project, biochemical, fluorescence (AID 504792); format: functional
Chain of Glucose-6-phosphate 1-dehydrogenase (P11413 whole entry): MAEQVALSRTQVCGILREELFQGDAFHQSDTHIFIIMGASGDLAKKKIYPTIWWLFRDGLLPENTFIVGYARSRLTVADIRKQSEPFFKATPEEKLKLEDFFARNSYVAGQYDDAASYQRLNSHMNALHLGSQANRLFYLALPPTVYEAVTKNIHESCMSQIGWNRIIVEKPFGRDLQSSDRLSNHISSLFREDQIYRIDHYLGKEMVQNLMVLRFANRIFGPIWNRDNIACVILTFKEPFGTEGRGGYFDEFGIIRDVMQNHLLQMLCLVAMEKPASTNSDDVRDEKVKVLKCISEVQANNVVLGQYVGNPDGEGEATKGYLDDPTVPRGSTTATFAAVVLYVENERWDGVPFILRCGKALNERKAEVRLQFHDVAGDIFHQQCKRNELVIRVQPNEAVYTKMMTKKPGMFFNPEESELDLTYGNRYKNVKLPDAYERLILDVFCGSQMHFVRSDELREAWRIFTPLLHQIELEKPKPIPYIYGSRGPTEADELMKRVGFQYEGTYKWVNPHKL

[10] = biological target: T4, Ubiquitin-conjugating enzyme E2 N (Homo sapiens, UniProt P61088); format: functional;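 also: Dose-response confirmation in a TR-FRET assay detecting UBC13-driven polyubiquitin chain formation, inhibition measured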
T4 sequence (P61088 whole entry): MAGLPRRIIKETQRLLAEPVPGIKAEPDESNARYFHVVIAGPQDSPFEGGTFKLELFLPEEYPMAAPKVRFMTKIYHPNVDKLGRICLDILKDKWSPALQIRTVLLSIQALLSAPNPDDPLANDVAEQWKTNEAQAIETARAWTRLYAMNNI

[11] = biological target: T5, Heat shock factor protein 1 (Mus musculus, UniProt P38532); assay: inhibition of MG132-induced HSE-luciferase signal, confirmation, cell-based, NIH3T3, luminescence, dose retest (AID 2382); format: functional;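 also: NIH3T3 fibroblasts with HSF1-driven luciferase reporter stressed by proteasome inhibitor MG132; luminescence from HSF1-driven luciferase expression after 8 hours of MG132 stress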
T5 sequence (P38532 whole entry): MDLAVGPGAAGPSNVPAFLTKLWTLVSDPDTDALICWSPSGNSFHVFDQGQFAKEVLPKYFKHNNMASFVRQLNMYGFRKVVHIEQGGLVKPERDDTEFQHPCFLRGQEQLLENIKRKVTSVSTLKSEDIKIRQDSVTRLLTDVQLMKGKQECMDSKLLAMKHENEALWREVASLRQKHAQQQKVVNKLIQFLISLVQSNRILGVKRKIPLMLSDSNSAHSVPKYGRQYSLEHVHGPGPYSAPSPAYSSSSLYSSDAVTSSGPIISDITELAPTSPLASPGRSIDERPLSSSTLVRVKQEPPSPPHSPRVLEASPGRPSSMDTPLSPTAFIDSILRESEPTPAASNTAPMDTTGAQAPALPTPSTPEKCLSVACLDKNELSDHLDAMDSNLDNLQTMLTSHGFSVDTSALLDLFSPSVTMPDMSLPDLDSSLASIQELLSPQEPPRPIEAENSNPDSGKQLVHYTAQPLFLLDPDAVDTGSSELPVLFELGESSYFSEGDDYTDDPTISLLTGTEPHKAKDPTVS

With `CON=C(C(=O)NC1C(=O)N2C(C(=O)O)=C(CSc3nc(=O)c(=O)[nH]n3C)CSC12)c1csc(N)n1` (stereo not drawn) the IC50 [1] was 2.89 µM (active).

In the case of `N#Cc1ccccc1OCCCN1CCC(Cc2ccccc2)CC1`, the EC50 (cells [2]) is reported as > 350 µM (not active), the EC50 (cells [3]) is reported as > 350 µM (not active) and the IC50 [4] is reported as 132 µM (active).

For `COCCNC(=O)C(c1ccncc1)N(Cc1ccccc1)C(=O)Cn1nnc2ccccc21` (stereo not drawn), the EC50 [5] was 4.27 µM (active), the EC50 [6] was 15.7 µM (active) and the EC50 (H4) was 1.08 µM (active).

With `Cc1ccc(C(=O)Cn2nnc3ccccc32)cc1` the EC50 [5] was 0.276 µM (active), the EC50 [6] was 0.325 µM (active) and the EC50 (H4) was 77.2 µM (active).

In the case of `O=C(CCc1ccccc1)NC(=S)Nc1ccc(S(=O)(=O)N2CCOCC2)cc1`, the IC50 [7] is reported as > 66 µM (inactive) and the IC50 [8] is reported as > 66 µM (inactive).

For `CC(SCC(=O)Nc1ccccc1)c1nc(O)c2ccccc2n1` (stereo not drawn), the IC50 [9] was 22.3 µM (inactive).

With `O=C1CC(=O)N2N=C(c3ccc([N+](=O)[O-])cc3)SC2=N1` the IC50 [1] was 5.67 µM (active).

In the case of `NC(=S)N=Nc1c(O)[nH]c2ccc(F)cc12`, the IC50 [7] is reported as > 66 µM (inactive) and the IC50 [8] is reported as > 66 µM (inactive).

For `O=[N+]([O-])c1cccc(C(=S)N2CCN(c3ccccc3)CC2)c1`, the IC50 [7] was > 66 µM (inactive) and the IC50 [8] was > 66 µM (inactive).

With `O=c1c2ccccc2nnn1COc1ccc(Cl)cc1Br` the EC50 [5] was 0.383 µM (active), the EC50 [6] was 29.7 µM (active) and the EC50 (H4) was 15.6 µM (active).

For `O=C(O)c1cccc(-n2cccc2/C=C2/NC(=O)N(c3cccc(Cl)c3)C2=O)c1`, the IC50 [1] was 9.53 µM (active).

With `CCOc1ccc(Cl)cc1/C=N/NC(N)=O` the IC50 [9] was > 80 µM (inactive) and the IC50 [10] was > 20 µM (inactive).

In the case of `O=[N+]([O-])c1ccc2c(c1)-c1ccccc1C2O` (stereo not drawn), the IC50 [9] is reported as > 80 µM (inactive).

For `CC1CC(C)CN(C(=O)COC(=O)/C=C/c2ccco2)C1` (stereo not drawn), the IC50 [1] was 19.9 µM (active).

With `CCOc1ccc2c(c1)-c1c(ssc1=S)C(C)(C)N2C(=O)CSC1=NCCS1` the IC50 [7] was > 66 µM (inactive) and the IC50 [8] was > 66 µM (inactive).

With `Cc1ccc(F)cc1NC(=O)c1sc2ncn(CC(=O)N3CCN(c4ccccn4)CC3)c(=O)c2c1C` the EC50 [5] was > 120 µM (not active), the EC50 [6] was > 120 µM (not active) and the EC50 (H4) was > 120 µM (not active).

With `c1ccc(-c2ccc3c(n2)CCCO3)cc1` the EC50 [5] was 47.7 µM (active), the EC50 [6] was 55.5 µM (active) and the EC50 (H4) was 7.05 µM (active).

In the case of `Cc1ccc2nc(-c3ccccc3NC(=O)CCC(=O)O)c(O)nc2c1`, the EC50 (cells [2]) is reported as > 350 µM (not active), the EC50 [11] is reported as > 195 µM (not active) and the EC50 (cells [3]) is reported as > 350 µM (not active).

In the case of `CCN(CC)c1nc(N)nc(NS(=O)(=O)c2ccc(Cl)cc2)n1`, the IC50 [9] is reported as > 80 µM (inactive).

In the case of `CCCS(=O)(=O)N1CCN=C1SCc1cccnc1`, the IC50 [7] is reported as > 66 µM (inactive) and the IC50 [8] is reported as > 66 µM (inactive).

For `O=C(OCc1cc(=O)n2c(n1)sc1ccccc12)c1ccc2c(=O)n3c(nc2c1)CCC3`, the IC50 [1] was 5.85 µM (active).

With `COc1ccc(C(=S)Nc2ccc(C)cc2)cc1` the IC50 [7] was > 66 µM (inactive) and the IC50 [8] was > 66 µM (inactive).
